Measured values as given in publication PMC9098913, “In vitro reconstitution of Escherichia coli divisome activation” (Nature Communications, 2022).

Legend:
[1] = Membrane off-binding rate (koff) of FtsA from FRAP; parameters: Off binding rate koff: unit not given here; conditions: Fig. S4i
Text: We could also use the data from these bleaching experiments to quantify the membrane-binding kinetics and diffusion of membrane-bound proteins by analysing the change of the fluorescence profile during recovery.
Equimolar concentrations of Cy3- and Cy5-labelled FtsA, supplemented with 20% unlabelled FtsA were used to study FRET and FRAP. Five pre-bleach frames were acquired, followed by acceptor photobleaching of a rectangular ROI with 40% 641 nm laser power and a dwell size of 1 µs/pixel, 75% overlapping lines. The recovery of the signal or the increase in donor intensity were measured with either two frames or one frame per second.
Bleaching the acceptor dye leads to an increase in the donor intensity, which can be used to quantify the Foerster Resonance energy transfer (FRET)[48]. FRET efficiency was quantified with E%=Ipost/Ipost+Ipre⋅100 , where Ipost is the intensity of the […] and Ipre is the […]. […] To extract the contribution of both processes, we adjusted a routine recently published by Gerganova et al.[33]. In short, the code provides the contribution of both modes of recovery by analysing the shape of the fluorescence recovery profile. […] Contribution of diffusion leads to a change of the slope of the outer borders of the bleached region (S4h right). Thus, by measuring the change of the slope of the border recovery, diffusion and simple on/off binding can be distinguished. We developed “FRAPdiff”, a graphical user interface, which uses the original fit routine by David Rutkowski. It can be used directly on.tiff movies with annotated bleach regions as ImageJ ROIs. In addition, we added optional bleach correction, user selectable projection axis (x or y), and optional mirroring of the recovery profiles, if bleaching was not symmetric. The original fit routine for estimating the recovery and diffusion dynamics can be found at https://github.com/davidmrutkowski/1DReflectingDiffusion. FRAPdiff is available at 10.5281/zenodo.6400639[49] under the GPLv3 open-source license.

FtsZ [2] = conditions: […] Tris-NTA; p-value 3.86 × 10^−4; three repeats
Experimental: (§1) Co-treadmilling of FtsA with FtsZ relies on the dynamic exchange of FtsA on the membrane. […] To investigate the respective contributions of membrane binding kinetics and FtsA self-interaction on the colocalization dynamics with FtsZ, we wanted to create variants of the two FtsA proteins that are permanently attached to the membrane. […] Accordingly, in these experiments the proteins only differ in their tendency to form oligomers.
(§2) To study colocalization of His-tagged variants of FtsA, 0.5–1 µM of Cy5 labelled His-tagged FtsAs were added to the chamber, incubated for 20 min and washed 6x with reaction buffer. […] To control the density of membrane-bound FtsA, SUVs without and with Tris-NTA lipids were mixed to obtain the respective Tris-NTA concentrations. To perform FRET/FRAP experiments, equimolar concentrations of Cy3 and Cy5 labelled His-tagged FtsAs (total 0.5–1 µM) or His-SUMO-Cys were added to a chamber and treated as above. […] FRAP experiments were performed as described before.
Time-lapse videos were first intensity-corrected and contrast-enhanced to avoid bleaching effects and simplify subsequent analysis. To remove contributions of X–Y drift, the videos were processed with the Linear Stack Alignment with SIFT plugin. Proper alignment was checked with the 3TP align plugin (J. A. Parker; Beth Israel Deaconess Medical Center, Boston). Subsequently, regions of interest (ROIs) in the center of the stacks were chosen for colocalization analysis. The Pearson’s correlation coefficient (PCC) was quantified with the Image CorrelationJ 1o plugin. To extract information about the relative ratio of FtsZ/FtsA molecules (slope of linear regression), we also used the Image CorrelationJ 1o plugin. As an output, the plugin provides a scatterplot of FtsZ vs FtsA intensities, to which we fitted a linear slope y=k⋅x+d , where k is the slope and d the offset. The slope was used as an estimate for the ratio of FtsA molecules below FtsZ filaments.

FtsZ [3] = conditions: […] Tris-NTA; p-value […] 10^−4 (vs WT-His6); 7.78 × 10^−5 (vs R286W); three repeats
Experimental: as §1, §2
Treadmilling dynamics, were quantified using an automated image analysis protocol previously developed by our group. To visualize colocalization of the co-treadmilling FtsZ & FtsA filaments, we used dual-colour videos obtained at an acquisition rate of one frame per 2 s. The two channels were aligned using FIJI’s 3TP align plugin. Both channels were then subjected to the image subtraction protocol and colocalization was measured as described above.

FtsA-His6: FtsA WT (1-405) with amphipathic helix replaced by C-terminal His-tag
Off binding rate koff ([1]; 0.10 % Tris-NTA lipids, + FtsZ, summary value): 0.0359 | Off binding rate koff ([1]; 0.10 % Tris-NTA lipids, replicate 1): 0.020 | Off binding rate koff ([1]; 0.10 % Tris-NTA lipids, replicate 2): 0.006 | Off binding rate koff ([1]; 0.10 % Tris-NTA lipids, without FtsZ, summary value): 0.0131 | Off binding rate koff ([1]; 0.40 % Tris-NTA lipids, + FtsZ, summary value): 0.0068 | Off binding rate koff ([1]; 0.40 % Tris-NTA lipids, without FtsZ, summary value): 0.0123 | Off binding rate koff ([1]; 0.60 % Tris-NTA lipids, + FtsZ, summary value): 0.0048 | Off binding rate koff ([1]; 0.60 % Tris-NTA lipids, without FtsZ, summary value): 0.0097 | Off binding rate koff ([1]; […] Tris-NTA lipids, + FtsZ, summary value): 0.0182 | Off binding rate koff ([1]; […] Tris-NTA lipids, replicate 1): 0.0017 | Off binding rate koff ([1]; […] Tris-NTA lipids, replicate 2): 0.018 | Off binding rate koff ([1]; […] Tris-NTA lipids, without FtsZ, summary value): 0.0098 | PCC His-tagged FtsA/FtsZ (FtsZ [2]): 0.13 ± 0.06 | PCCdiff His-tagged FtsA/FtsZ (FtsZ [3]): 0.07 ± 0.04
